Measurements reported in US8765755B2, “N-containing heterocyclic compounds” (YM Biosciences Australia Pty Ltd, priority 2007, dated 2014).

Legend:
human JAK2 = target: T1, human JAK2 (Homo sapiens, UniProt O60674); test: JAK2 kinase enzyme assay (Alphascreen); format: biochemical; settings: 80 or 625 um ATP
T1 construct: The kinase domain of human JAK2 was amplified; GST (N); made in house; host or cells: Sf9 (Spodoptera frugiperda) insect cells, baculovirus
Procedure: (§1) For screening purposes, compounds (in 100% DMSO) were warmed at 37 degrees for at least 20 minutes before use. A […] stock was initially made in assay buffer, where the final concentration of DMSO was 0.3%. The stocks were then diluted in 384 well Optiplates (Packard) where the final concentration of the compound was 5 μM.
The kinase domain of human JAK2 was amplified from U937mRNA using the polymerase chain reaction with the following primers: […]
The JAK2 PCR products were cloned into the pDest20 destination vector (Gibco). The JAK2 plasmid was then transformed into competent DH10Bac cells (Gibco), and the recombinant baculovirus was prepared via Sf9 insect cell transfection.
(§2) Baculovirus preparations from each of the JAK family members were infected into one litre of Sf9 (Spodoptera frugiperda) cells (Invitrogen) grown in SF900II serum free medium (Invitrogen) to a cell density of approximately 2×10^6 cells/ml. Cells were infected with virus at a cell culture to virus stock ratio of 20:1. Cells were harvested and lysed 48 hours post infection. The GST-tagged JAK kinase domains were purified by affinity chromatography on a GSH agarose column (Scientifix).
(§3) Kinase assays were performed in 384 well Optiplates (Packard) using an Alphascreen Protein Tyrosine KinaseP100 detection kit The compounds were pre-incubated with affinity purified PTK domain in the presence of phosphotyrosine assay buffer (10 mM HEPES, pH 7.5, 100 mM MgCl2, 25 mM NaCl, 200 mM sodium vanadate and 0.1% Tween 20) for 20 minutes. The compounds were then incubated with substrate in the presence of either 80 or 625 um ATP for 60 or 90 minutes. The substrate used was either susbtrate-1 with the sequence biotin-EGPWLEEEEEAYGWMDF-NH2 [SEQ. ID. NO. 13] (final concentration 111 μM) or susbtrate-2 substrate with the sequence biotin-EQEDEPEGDYFEWLEPE (final concentration 133 μM). Alphascreen phosphotyrosine acceptor beads followed by streptavidin donor beads at a concentration of 1/100 in stop buffer were added to each well under subdued light and incubated for 2-3 hours. The Alphascreen plates were read on a Packard Fusion Alpha instrument.

human JAK3 = target: T2, human JAK3 (Homo sapiens, UniProt P52333); test: JAK3 kinase enzyme assay (Alphascreen); format: biochemical; settings: 80 or 625 um ATP
T2 construct: The kinase domain of human JAK3 was amplified; GST (N); made in house; host or cells: Sf9 (Spodoptera frugiperda) insect cells, baculovirus
T2 sequence (P52333 822-1111 limits assumed): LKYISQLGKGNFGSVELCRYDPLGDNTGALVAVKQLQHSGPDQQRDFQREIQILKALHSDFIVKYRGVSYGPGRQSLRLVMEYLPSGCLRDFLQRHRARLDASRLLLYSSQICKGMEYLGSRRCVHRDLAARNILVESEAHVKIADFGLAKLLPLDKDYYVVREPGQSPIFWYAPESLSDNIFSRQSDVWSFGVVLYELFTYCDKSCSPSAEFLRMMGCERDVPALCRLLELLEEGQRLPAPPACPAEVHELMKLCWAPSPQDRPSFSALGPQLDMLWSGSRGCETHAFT
Procedure: as §1
The kinase domain of human JAK3 was amplified from U937mRNA using the polymerase chain reaction with the following primers: […]
The JAK3 PCR products were cloned into the pDest20 destination expression vector (Gibco). The JAK3 plasmid was then transformed into competent DH10Bac cells (Gibco), and the recombinant baculovirus was prepared via Sf9 insect cell transfection.
as §2, §3

BafT_J2 = test: Cellular screening, BaF3 TEL:JAK2 cells (Alamar Blue); format: cell-based; settings: Mus musculus, 40 hr incubation
Procedure: (§4) For screening purposes, compounds were diluted in 96 well plates at a concentration of 20 μM. Plates were warmed at 37° C. for 30 minutes before the assay was performed.
(§5) The coding region encompassing nucleotides 1-487 of TEL was amplified by PCR using the oligonucleotides 5TEL (5′-GGAGGATCCTGATCTCTCTCGCTGTGAGAC-3′) [SEQ ID NO 14] and 3TEL (5′-AGGC GTCGACTTCTTCTTCATGGTTCTG-3′) [SEQ ID NO 15] and U937 mRNA as a template. A BamHI restriction site was incorporated into the 5TEL primer, and a Sal I restriction site was incorporated into the 3TEL primer. The regions encompassing the kinase domain of JAK2 (nucleotides 2994-3914; JAK2F 5′-ACGC GTCGACGGTGCCTTTGAAGACCGGGAT-3′ [SEQ ID NO 16]; JAK2R 5′-ATAGTTTAGCGGCCGCTCAGAATGAAGGTCATTT-3′) [SEQ ID NO 17] and JAK3 (nucleotides 2520-3469; JAK3F 5′-GAAGTCGACTATGCCTGCCAAGACCCCACGATCTT-3′) [SEQ ID NO 18] were generated by PCR using Taq DNA polymerase (Gibco/BRL) and U937 mRNA as a template. A Sal I restriction site was incorporated into the forward primer of JAK2 and JAK3, a Not I site was incorporated into the JAK2 reverse primer and a Xba I site was added to the reverse primer of JAK3.
A TEL/Jak2 fusion was generated by digestion of the TELPCR product with BamH I/Sal I restriction enzymes, digestion of the JAK2 PCR product with Sal I/Not I restriction enzymes, followed by ligation and subcloning of the ligation product into the mammalian expression Vector pTRE 2 (Clontech), which was prepared by digestion with BamH I-Not I restriction enzymes, to give the TEL/Jak2 fusion plasmid pTELJAK2.
(§6) The growth factor dependant myelomonocytic cell line BaF3 bearing the pTET-off plasmid (Clontech) was transfected with either pTELJAK2 or pTELJAK3, and the transfected cells were selected for growth-factor independent cell growth. The BaF3 wild-type cells were cultured in DMEM containing 10% FCS, 10% WEHI 3B conditioned medium. The BaF3 TELJAK cells ([…]) were cultured in DMEM 10% Tet-System Approved FBS (without WEHI 3B conditioned medium).
(§7) Cell suspensions were prepared by harvesting cells from culture. (the cells used in this test were in late log phase growth with high viability.) Cells were diluted in the appropriate growth medium, as described above, to 1.1× final concentration (from 50,000 cell/mL to 200,000 cell/mL, depending on cell line).
(§8) Compounds to be tested were added (10 μL, 10× final concentration) to a flat bottomed 96-well plate. The cellular suspension (90 μL per well) was then added, and the plate incubated for 40 hr at 37° C., 5% CO2. Alamar Blue 10 μL per well was added and the plates returned to the incubator for a further 4-6 hours. The plates were then read at 544 nm.

BAF3wt = test: Cellular screening, BaF3 wild-type cells (Alamar Blue); format: cell-based; settings: Mus musculus, 40 hr incubation
Procedure: as §4, §6, §7, §8

BafT_J3 = test: Cellular screening, BaF3 TEL:JAK3 cells (Alamar Blue); format: cell-based; settings: Mus musculus, 40 hr incubation
Procedure: as §4, §5
The TEL/Jak3 fusion was prepared by ligation of the JAK3 Sal I/Not I cleaved kinase domain PCR product with the BamH I/Sal I restriction digested TEL product, followed by ligation of the ligation product into the BamH I/Not I digested pTRE2, to give the TEL/Jak3 fusion plasmid pTELJAK3.
as §6, §7, §8

CTLL2 = test: Cellular screening, CTLL2 cells (Alamar Blue); format: cell-based; settings: Mus musculus, CTLL-2, 40 hr incubation
Procedure: as §4, §7, §8

T1 sequence (O60674 849-1124 limits assumed): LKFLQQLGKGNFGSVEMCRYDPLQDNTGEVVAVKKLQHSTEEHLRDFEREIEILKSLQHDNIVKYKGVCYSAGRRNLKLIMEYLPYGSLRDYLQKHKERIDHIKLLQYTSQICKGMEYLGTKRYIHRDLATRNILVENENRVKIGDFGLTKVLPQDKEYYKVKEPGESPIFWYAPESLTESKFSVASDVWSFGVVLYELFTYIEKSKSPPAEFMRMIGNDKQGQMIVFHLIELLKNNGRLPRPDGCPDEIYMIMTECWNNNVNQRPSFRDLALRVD

Structure (SMILES)	IC50 (human JAK2) [nM]	IC50 (human JAK3) [nM]	IC50 (BafT_J2) [nM]	IC50 (BAF3wt) [nM]	IC50 (BafT_J3) [nM]	IC50 (CTLL2) [nM]
CN1CCN(c2ccc(-c3csc4cnc(Nc5ccc(CN6CCOCC6)cc5)nc34)cc2)CC1 [Compound 84, 7-(4-(4-methylpiperazin-1-yl)phenyl)-N-(4-(morpholinomethyl)phenyl)thieno[3,2-d]pyrimidin-2-amine]	< 100	< 500	< 1000	< 1000	< 1000	< 1000
COc1cc(Nc2ncc3scc(-c4ccc(CO)cc4)c3n2)cc(OC)c1OC [Compound 88, (4-(2-(3,4,5-trimethoxyphenylamino)thieno[3,2-d]pyrimidin-7-yl)phenyl)methanol]	< 100	< 100	< 1000	< 1000	< 1000	< 1000
CCc1ccccc1-c1csc2cnc(Nc3ccc(N4CCOCC4)cc3)nc12 [Compound 29, 7-(2-ethylphenyl)-N-(4-morpholinophenyl)thieno[3,2-d]pyrimidin-2-amine]	< 100	< 100	< 1000	< 1000	< 1000	< 1000
NCc1ccc(-c2csc3cnc(Nc4ccc(CN5CCOCC5)cc4)nc23)cc1 [Compound 97, 7-(4-(aminomethyl)phenyl)-N-(4-(morpholinomethyl)phenyl)thieno[3,2-d]pyrimidin-2-amine]	< 100	< 100	< 1000	< 1000	< 1000	< 1000
COc1ccc(Nc2ncc3scc(-c4cccnc4OC)c3n2)cc1OC [Compound 52, N-(3,4-dimethoxyphenyl)-7-(2-methoxypyridin-3-yl)thieno[3,2-d]pyrimidin-2-amine]	< 100	< 100	< 1000	< 1000	< 1000	< 1000
OCc1ccc(-c2csc3cnc(Nc4ccc(N5CCOCC5)cc4)nc23)cc1 [Compound 90, (4-(2-(4-morpholinophenylamino)thieno[3,2-d]pyrimidin-7-yl)phenyl)methanol]	< 100	< 100	< 1000	< 1000	< 1000	< 1000
CC(=O)Nc1cccc(-c2csc3cnc(Nc4ccc(N5CCOCC5)cc4)nc23)c1 [Compound 30, N-(3-(2-(4-morpholinophenylamino)thieno[3,2-d]pyrimidin-7-yl)phenyl)acetamide]	< 100	< 100	< 1000	< 1000	< 1000	< 5000
